Laboratory results from US10473645B2, “Methods for identifying a receptor for a ligand and uses thereof” (UNIVERSITE DE GENEVE, priority 2014, dated 2019).

Columns and labels:
[1] = system: Olfr160; assay: OR transcript level by RT-qPCR after in vivo odorant exposure; set-up: species or system mouse; key to olfr160 candidate OR (RNAseq) confirmed by qPCR: The transcript downregulation of 21 out of the 26 olfactory receptor candidates obtained by RNAseq was confirmed by qPCR; false RNAseq positive candidates, namely OR candidates for which in fact mRNA was not downregulated following acetophenone exposure; details: for Olfr160 mRNA level relative to unexposed controls: 5% odorant, 5 hours, in vivo, RT-qPCR
Description: (§1) In vivo exposure to odorant: Starting 48 h before experiments, mice were habituated to pure DMSO on a cotton ball. 200 μl were pipetted directly onto the cotton and placed in the cage, replacing any cotton that was already in the cage for nest-making purposes.
On the day of the experiment, mice receiving odorants were transferred to a different room, where they were exposed to a cotton ball on which 200 μl of odorant diluted in pure DMSO were deposited. Exposures started in the morning between 8 and 10 am (that is two hours after lights were on) and mice were killed and dissected between 1 and 3 pm. […] If a number of different odorants were tested in the same experiment, a different overpressurized room would always be used for each odorant to avoid odor cross-contamination.
After odorant exposure, mice were killed by cervical dislocation and immediately decapitated. The main olfactory epithelia (MOE), were harvested in their entirety and transferred to a tube containing 600 μl of lysis buffer and β-mercaptoethanol (RNAeasy kit, Qiagen, following the manufacturer protocol) and a 0.5 cm diameter steel ball, and then put on ice. Samples were then homogenized using a FastPrep®-24 instrument (MP Biomedicals) at 6 m/s for 30 s and left on ice. RNA extraction was performed on all samples in parallel using the Qiagen RNeasy Mini® kit following the manufacturer's instructions. Two DNase treatments were performed on all samples: first using the Qiagen RNase-Free DNase Set® and then using the Life Technologies Ambion DNase I® kit. RNA samples were then aliquoted and stored at −80° C.
(§2) RNA concentrations were determined using an Amersham Ultrospec® 3100 Pro spectrophotometer, and RNA quality was evaluated with an Agilent Technologies 2100 Bioanalyzer®. […]
(§3) qPCR Ct values were analyzed using an in-house developed Microsoft Excel® macro file. […] Ct values were converted to quantities relative to the maximum for each given gene. Selected reference genes were then analyzed for variance using the geNorm algorithm. […]

[2] = biological target: T1, Olfr730 (Mus musculus, UniProt A0A0U1RNX7); assay: as above; details: 5% odorant, 5 hours
T1 construct: from tissue; host or cells: olfactory epithelium of adult C57BL/6 mice
Description: as §1
On the day of the experiment, mice receiving odorants were transferred to a different room, where they were exposed to a cotton ball on which 200 μl of odorant diluted in pure DMSO were deposited. Exposures started in the morning between 8 and 10 am (that is two hours after lights were on) and mice were killed and dissected between 1 and 3 pm. […]
as §2, §3
Adult C57BL/6 mice were exposed to 5% acetophenone for 5 hours, and the level of transcripts of odorant receptors' genes were measured by RT-qPCR on extracts of olfactory epithelia from these mice, as described in the materials and methods section.

[3] = system: Olfr1377; assay: OR transcript downregulation by RNAseq after in vivo exposure; set-up: species or system mouse; details: 5% odorant, 5 hours, reduction larger than 20% = downregulated
Description: (§4) Animals were exposed to 5% acetophenone for 5 hours before RNA extraction (as previously described). cDNA libraries were generated with the Truseq RNA and DNA sample preparation kits after selection of polyA-containing mRNAs. Adapters for RNAseq multiplexing were added to the cDNAs. The cDNA libraries were sequenced with a HiSeq®2500 Sequencing system. 100 bp reads were mapped using Bowtie2 with a 28 bp seed. The differential gene expression analyses were performed with DESeq2. Because of the high sequence similarity between OR gene paralogs, some reads are mapped to multiple OR genes. These reads were removed from the analysis.
(§5) Mice (n=6) were exposed to 5% acetophenone or to a “neutral” control condition for 5 hours. An olfactory cDNA library corresponding to each animal was deep sequenced and the ratios of odorant receptor mRNA concentrations relative to controls were plotted (FIG. 3). […] Based on transcriptional downregulation levels observed by RNAseq following acetophenone exposure, a list of 26 candidate responsive ORs was determined (FIG. 3), that reached 74% decrease (Olfr145) or even over 80% (Olfr169) relative to controls. […] The transcript downregulation of 21 out of the 26 olfactory receptor candidates obtained by RNAseq was confirmed by qPCR.

[4] = system: Olfr160; assay: as above; set-up: species or system mouse; details: 5% odorant, 5 hours, reduction larger than 20% = downregulated
Description: as §4, §5

[5] = system: Olfr169; assay: as above; set-up: species or system mouse; details: 5% odorant, 5 hours
Description: as §4, §5

[6] = system: Olfr983; assay: as above; set-up: species or system mouse; details: 5% odorant, 5 hours, reduction larger than 20% = downregulated
Description: as §4, §5

[7] = system: Olfr160; details: dissociated neurons; previously shown; read-out: EC50 as agonist of Olfr160; cited from earlier work
[8] = biological target: T2, Olfr556 (Mus musculus, UniProt B2RRG2); assay: OR transcript downregulation by RNAseq after in vivo exposure; set-up: from tissue; host or cells: main olfactory epithelium of exposed mice; details: 5% odorant, 5 hours, reduction larger than 20% = downregulated
T2 sequence (B2RRG2 1-324): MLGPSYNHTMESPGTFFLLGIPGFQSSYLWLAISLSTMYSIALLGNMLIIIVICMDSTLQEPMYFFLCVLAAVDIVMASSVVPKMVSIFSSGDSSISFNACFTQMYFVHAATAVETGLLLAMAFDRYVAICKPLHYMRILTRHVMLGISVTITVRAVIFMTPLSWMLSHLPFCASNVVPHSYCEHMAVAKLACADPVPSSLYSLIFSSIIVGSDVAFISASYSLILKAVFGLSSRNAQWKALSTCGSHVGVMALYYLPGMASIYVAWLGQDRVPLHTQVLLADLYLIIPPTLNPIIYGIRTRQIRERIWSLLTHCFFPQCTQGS
Description: as §4, §5

T1 sequence (A0A0U1RNX7 1-317): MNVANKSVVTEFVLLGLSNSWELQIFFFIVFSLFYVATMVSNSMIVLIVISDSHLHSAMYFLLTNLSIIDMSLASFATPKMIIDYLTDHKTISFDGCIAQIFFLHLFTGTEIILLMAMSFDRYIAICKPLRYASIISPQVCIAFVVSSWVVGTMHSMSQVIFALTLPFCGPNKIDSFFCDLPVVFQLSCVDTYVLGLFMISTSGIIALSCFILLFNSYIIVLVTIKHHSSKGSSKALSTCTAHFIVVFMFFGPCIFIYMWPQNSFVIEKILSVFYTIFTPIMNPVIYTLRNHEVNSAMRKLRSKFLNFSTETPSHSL

What does the source list for `CC(=O)c1ccccc1` [acetophenone]?
olfr160 candidate OR (RNAseq) confirmed by qPCR ([1]; 5% acetophenone exposure): y; Olfr160 mRNA level relative to unexposed controls [1]: decrease; Olfr160 mRNA level relative to unexposed controls ([1]; listed as Acetophenone): downregulates; Olfr730 mRNA concentration increase, fold change [2]: 1.4 fold; Olfr1377 transcript modulation (RNAseq) [3]: downregulated; Olfr160 transcript modulation (RNAseq) [4]: downregulated; Olfr169 transcript decrease relative to controls (RNAseq) [5]: over 80%; Olfr983 transcript modulation (RNAseq) [6]: downregulated; EC50 [7]: < 50 µM; Olfr556 transcript modulation (RNAseq) [8]: downregulated
